Measurements as given in patent US12404275B2, “Pyrazolopyrazine derived compounds, pharmaceutical composition and use thereof” (PrimeGene (Beijing) Co., Ltd., priority 2019, dated 2025).

Assays:
Format in all cases: biochemical
Tyk2 [1] = target: Tyk2 (Homo sapiens, UniProt P29597); experiment: Mobility shift assay, inhibitory activity on Tyk2 kinase; settings: mobility shift assay; Tyk2 2.5 nM; ATP 1 mM; 3 μM Kinase Substrate 30
Method: (§1) Inhibitory Activities of the Compounds on JAK1, JAK2, JAK3 and Tyk2 (IC50)
(§2) The inhibitory activity of compounds on JAK family kinase was analyzed with Mobility shift assay. The screening platform is MSA based microfluidic chip technology, which applies the basic concept of capillary electrophoresis to microfluidic environment. The substrate used in the experiment is a poly-peptide labeled with fluorescent. Under the catalysis of kinase in the reaction system, the substrate is transformed into a product, with the charge changed accordingly. MSA technology could detect the substrate and the product with different charge separately.
(§3) A compound (powder) was dissolved in 100% DMSO to prepare a 10 mM storage solution. […] Detection in duplicate. Baricitinib (Selleckchem, Cat. S2851) was used as positive control. The serially diluted compound was mixed with JAK1/JAK2/JAK3/Tyk2 kinase (Cama, Cat. 08-144/08-045/08-046/08-147) with final concentration of 5 nM/0.125 nM/0.5 nM/2.5 nM in a Optiplate-384F plate and incubated at room temperature for 10 minutes. After that, ATP with final concentration of 1 mM and 3 μM Kinase Substrate 30 (GL Biochem, Cat. 117885) were added and mixed well. The reaction was carried out at room temperature for 20 min. Stop test solution was added to stop the reaction and the conversion rate was read by Caliper EZ Reader II.
(§4) Conversion %_sample: the conversion rate reading of the sample;
(§5) Conversion %_min: mean value of negative control, representing the conversion rate reading without kinase activity;
(§6) Coversion %_max: mean value of positive control, representing the conversion rate reading without compound inhibition.

Tyk2 [2] = experiment: as above; settings: ratio of JAK2 IC50 to TyK2 IC50
Method: as §1, §2, §3, §4, §5, §6

JAK2 = JAK2 (Homo sapiens, UniProt O60674); experiment: Mobility shift assay, inhibitory activity on JAK2 kinase; settings: JAK2 0.125 nM, ATP 1 mM, 3 μM Kinase Substrate 30
Method: as §1, §2, §3, §4, §5, §6

Row | Structure (SMILES) | IC50 (Tyk2 [1]) | Selectivity of JAK2/TyK2 (Tyk2 [2]) | IC50 (JAK2)
1 | CC(C)S(=O)(=O)N1CC(CC#N)(n2cc(-c3nc(-c4cnn(C)c4)cn4nccc34)c(N)n2)C1 [Example 3, 2-(3-(3-amino-4-(6-(1-methyl-1H-pyrazol-4-yl)pyrazolo[1,5-a]pyrazin-4-yl)-1H-pyrazol-1-yl)-1-(isopropylsulfonyl)azetidin-3-yl)acetonitrile] | 2.1 nM | 36.6 | 77 nM
2 | CCS(=O)(=O)N1CC(CC#N)(n2cc(-c3nc(-c4cnn(C)c4)cn4nccc34)c(N)n2)C1 [Example 2, 2-(3-(3-amino-4-(6-(1-methyl-TH-pyrazol-4-yl)pyrazolo[1,5-a]pyrazin-4-yl)-1H-pyrazol-1-yl)-1-(ethylsulfonyl)azetidin-3-yl)acetonitrile] | 0.38 nM | 168 | 64 nM
3 | Cn1cc(-c2cn3nccc3c(-c3cn([C@]4(CC#N)C[C@H](C#N)C4)c4ccncc34)n2)cn1 [Example 47, (1s,3s)-3-(cyanomethyl)-3-(3-(6-(1-methyl-1H-pyrazol-4-yl)pyrazolo[1,5-a]pyrazin-4-yl)-1H-pyrrolo[3,2-c]pyridin-1-yl)cyclobutane-1-carbonitrile] | 186 nM |  | 
4 | Cn1cc(-c2cn3nccc3c(-c3cn([C@]4(CC#N)C[C@H](C#N)C4)c4ncncc34)n2)cn1 [Example 50, (1r,3r)-3-(cyanomethyl)-3-(5-(6-(1-methyl-1H-pyrazol-4-yl)pyrazolo[1,5-a]pyrazin-4-yl)-7H-pyrrolo[2,3-d]pyrimidin-7-yl)cyclobutane-1-carbonitrile] | 0.41 nM | 24.4 | 10 nM
5 | Cn1cc(-c2cn3nccc3c(-c3cn([C@]4(CC#N)C[C@@H](C#N)C4)c4ccncc34)n2)cn1 [Example 48, (1r,3r)-3-(cyanomethyl)-3-(3-(6-(1-methyl-1H-pyrazol-4-yl)pyrazolo[1,5-a]pyrazin-4-yl)-1H-pyrrolo[3,2-c]pyridin-1-yl)cyclobutane-1-carbonitrile] | 0.36 nM | 22.5 | 8.1 nM
6 | CNc1nn([C@]2(CC#N)C[C@@H](C#N)C2)cc1-c1nc(-c2cnn(C)c2)cn2nccc12 [Example 38, (1r,3r)-3-(cyanomethyl)-3-(4-(6-(1-methyl-1H-pyrazol-4-yl)pyrazolo[1,5-a]pyrazin-4-yl)-3-(methylamino)-1H-pyrazol-1-yl)cyclobutane-1-carbonitrile] | 0.33 nM | 20 | 6.7 nM
7 | Cn1cc(-c2cn3ncnc3c(-c3cn([C@]4(CC#N)C[C@@H](C#N)C4)nc3N)n2)cn1 [Example 41, (1r,3r)-3-(3-amino-4-(6-(1-methyl-1H-pyrazol-4-yl)-[1,2,4]triazolo[1,5-a)pyrazin-8-yl)-1H-pyrazol-1-yl)-3-(cyanomethyl)cyclobutane-1-carbonitrile] | 37 nM |  | 
8 | Cn1cc(-c2cn3nccc3c(-c3cn([C@]4(CC#N)C[C@@H](C#N)C4)nc3N)n2)cn1 [Example 9, (1r,3r)-3-(3-amino-4-(6-(1-methyl-1H-pyrazol-4-yl)pyrazolo[1,5-a]pyrazin-4-yl)-1H-pyrazol-1-yl)-3-(cyanomethyl)cyclobutyl-1-carbonitrile] | 0.17 nM |  | 14 nM
9 | Cn1cc(-c2cc(-c3cn([C@]4(CC#N)C[C@@H](C#N)C4)nc3N)c3ccnn3c2)cn1 [Example 42, (1r,3r)-3-(3-amino-4-(6-(1-methyl-1H-pyrazol-4-yl)pyrazolo[1,5-a]pyridin-4-yl)-1H-pyrazol-1-yl)-3-(cyanomethyl)cyclobutane-1-carbonitrile] | 375 nM |  | 
10 | CC(=O)Nc1nn([C@]2(CC#N)C[C@@H](C#N)C2)cc1-c1nc(-c2cnn(C)c2)cn2nccc12 [Example 40, N-(1-((1r,3r)-3-cyano-1-(cyanomethyl)cyclobutyl)-4-(6-(1-methyl-1H-pyrazol-4-yl)pyrazolo[1,5-a]pyrazin-4-yl)-1H-pyrazol-3-yl)acetamide] | 139 nM |  | 
11 | Cn1cc(-c2cn3nccc3c(-c3cn([C@]4(CC#N)C[C@H](C#N)C4)c4ncncc34)n2)cn1 [Example 49, (1s,3s)-3-(cyanomethyl)-3-(5-(6-(1-methyl-1H-pyrazol-4-yl)pyrazolo[1,5-a]pyrazin-4-yl)-7H-pyrrolo[2,3-d]pyrimidin-7-yl)cyclobutane-1-carbonitrile] | 118 nM |  | 
12 | CN(C)c1nn([C@]2(CC#N)C[C@@H](C#N)C2)cc1-c1nc(-c2cnn(C)c2)cn2nccc12 [Example 39, (1r,3r)-3-(cyanomethyl)-3-(3-(dimethylamino)-4-(6-(1-methyl-1H-pyrazol-4-yl)pyrazolo[1,5-a]pyrazin-4-yl)-1H-pyrazol-1-yl)cyclobutane-1-carbonitrile] | 3.7 nM | 54 | 200 nM
13 | Cn1cc(-c2cc(-c3cn([C@]4(CC#N)C[C@H](C#N)C4)nc3N)c3ccnn3c2)cn1 [Example 43, (is, 3s)-3-(3-amino-4-(6-(1-methyl-TH-pyrazol-4-yl)pyrazolo[1,5-a]pyridin-4-yl)-1H-pyrazol-1-yl)-3-(cyanomethyl)cyclobutane-1-carbonitrile] | 43 nM |  | 
14 | Cn1cc(-c2cn3nccc3c(-c3cn(C4(CC#N)CN(CC#N)C4)nc3N)n2)cn1 [Example 1, 2,2′-(3-(3-amino-4-(6-(1-methyl-1H-pyrazol-4-yl)pyrazolo[1,5-a]pyrazine-4-yl)-1H-pyrazol-1-yl)azetidine-1,3-diyl)diacetonitrile] | 0.42 nM | 210 | 88 nM
15 | CC(C)S(=O)(=O)N1CC(CC#N)(n2cc(-c3nc(-c4cnn(C)c4)cn4ncc(C#N)c34)c(N)n2)C1 [Example 4, 4-(3-amino-1-(3-(cyanomethyl)-1-(isopropylsulfonyl)azetidin-3-yl)-1H-pyrazol-4-yl)-6-(1-methyl-1H-pyrazol-4-yl)pyrazolo[1,5-a]pyrazine-3-carbonitrile] | 1760 nM |  | 
16 | Cn1cc(-c2cn3nccc3c(-c3cn([C@]4(CC#N)C[C@H](C#N)C4)nc3N)n2)cn1 [Example 10, (1s,3s)-3-(3-amino-4-(6-(1-methyl-1H-pyrazol-4-yl)pyrazolo[1,5-a]pyrazin-4-yl)-1H-pyrazol-1-yl)-3-(cyanomethyl)cyclobutyl-1-carbonitrile] | 0.13 nM |  | 0.25 nM
